Experimental findings from PubChem BioAssay (NCI) are described below.

Molecules are shown by their SMILES.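 1) Cells in 96-well plates. 2) Compound, 48 h, 5 concentrations. 3) Linear interpolation between surrounding doses. 4) Unreached endpoint = highest concentration. GI50: concentration for 50% inhibition of growth. At the TGI there is no net growth.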

For orientation: GI50 means the concentration giving 50% growth inhibition. The term TGI denotes the concentration giving total growth inhibition. A lower TGI goes with more potent growth arrest.

Among the test systems are CAKI-1 renal; SF-268 CNS; NCI-H23 lung; RXF 393 renal; SK-MEL-28 melanoma; RPMI-8226 leukemia; UACC-257 melanoma; SF-539 CNS.
Common to all, as to assay: DTP human tumour cell line panel, 48 h

Turning to `COc1cc(/C=C/C(=O)c2cccc(-n3cc(-c4ccccc4)[nH]c3=O)c2)cc(OC)c1OC`, the GI50 with CAKI-1 renal is 1.75 µM; in the experiment with SF-268 CNS it was 1.92 µM; in the experiment on NCI-H23 lung it was 1.43 µM; in the experiment with RXF 393 renal it was 1.71 µM; with SK-MEL-28 melanoma, 1.74 µM; in the experiment with RPMI-8226 leukemia it was 0.626 µM. In addition, the GI50 in the experiment on UACC-257 melanoma is 1.52 µM; in the experiment on SF-539 CNS it was 1.68 µM. For the same compound, the TGI is 4.57 µM with CAKI-1 renal; 5.74 µM with SF-268 CNS; 3.29 µM in the experiment on NCI-H23 lung; 3.53 µM with RXF 393 renal; 3.2 µM with SK-MEL-28 melanoma; greater than 100 µM with RPMI-8226 leukemia. Moreover, the TGI with UACC-257 melanoma is 3.17 µM; in the experiment with SF-539 CNS, 3.12 µM.
For `CC(C)=CCc1cc2c(cc1O)C1=C(C(=O)C3=C(NCCS3(=O)=O)C1=O)C(C=C(C)C)O2` (configuration not stated), the GI50 in the experiment with SF-268 CNS is 4.13 µM; in the experiment on NCI-H23 lung, 5.8 µM; in the experiment with RXF 393 renal, 7.66 µM; in the experiment with SK-MEL-28 melanoma it was 3.81 µM; in the experiment on RPMI-8226 leukemia, 5.56 µM; in the experiment with UACC-257 melanoma, 3.48 µM. Further, the GI50 with SF-539 CNS is 4.22 µM. For the same compound, the total growth inhibition concentration (TGI) in the experiment with SF-268 CNS was greater than 16.7 µM; with NCI-H23 lung, greater than 16.7 µM; in the experiment with RXF 393 renal, greater than 16.7 µM; with SK-MEL-28 melanoma, 9.84 µM; with RPMI-8226 leukemia, greater than 16.7 µM; in the experiment with UACC-257 melanoma, 9.66 µM. Moreover, the TGI in the experiment on SF-539 CNS came out at 12.9 µM.
Turning to `C=CCc1cccc(C=O)c1O`, the GI50 with CAKI-1 renal was greater than 100 µM; with SF-268 CNS, 25.2 µM; in the experiment with NCI-H23 lung, greater than 100 µM; with RXF 393 renal it was 94 µM; in the experiment with SK-MEL-28 melanoma it was greater than 100 µM; in the experiment with RPMI-8226 leukemia it was 7.72 µM. Also, the GI50 is greater than 100 µM in the experiment on UACC-257 melanoma and 30.1 µM in the experiment on SF-539 CNS. Also, the TGI with CAKI-1 renal, in the experiment on SF-268 CNS, with NCI-H23 lung, in the experiment on RXF 393 renal, in the experiment on SK-MEL-28 melanoma and with RPMI-8226 leukemia was greater than 100 µM throughout. Further, the TGI in the experiment with UACC-257 melanoma and in the experiment with SF-539 CNS was greater than 100 µM throughout.
For `O=S(=O)(NCCCNc1cc(-c2cn(-c3ccccc3)nc2-c2cccc(O)c2)ccn1)c1ccc(C(F)(F)F)cc1`, the GI50 in the experiment on CAKI-1 renal was 2.08 µM; in the experiment with SF-268 CNS, 1.85 µM; with NCI-H23 lung it was 1.65 µM; in the experiment on RXF 393 renal, 1.24 µM; in the experiment with SK-MEL-28 melanoma, 1.99 µM; with RPMI-8226 leukemia it was 1.66 µM. Moreover, the GI50 in the experiment with SF-539 CNS is 1.83 µM. Moreover, the TGI with CAKI-1 renal worked out at 7.81 µM; in the experiment on SF-268 CNS it was 4.95 µM; with NCI-H23 lung it was 3.94 µM; with RXF 393 renal, 2.84 µM; in the experiment on SK-MEL-28 melanoma, 4.29 µM; in the experiment on RPMI-8226 leukemia, 4.82 µM. Further, in the experiment with SF-539 CNS, the TGI was 3.77 µM.
On to `COC(=O)c1c2c(c(C)[n+]([O-])c1C)C(=O)C(NCc1ccc(OC)cc1)=CC2=O`, for which the GI50 with CAKI-1 renal is 2.9 µM; in the experiment with SF-268 CNS, 2.64 µM; in the experiment on NCI-H23 lung it was 1.81 µM; in the experiment on RXF 393 renal, 1.55 µM; with SK-MEL-28 melanoma, 2.95 µM; in the experiment with RPMI-8226 leukemia, 2.41 µM. The GI50 was 1.63 µM with UACC-257 melanoma and 1.68 µM with SF-539 CNS. Further, the total growth inhibition concentration (TGI) in the experiment on CAKI-1 renal came to 11.2 µM; in the experiment with SF-268 CNS, 10.3 µM; in the experiment on NCI-H23 lung, 4.26 µM; in the experiment with RXF 393 renal, 3.7 µM; in the experiment on SK-MEL-28 melanoma it was 11.3 µM; with RPMI-8226 leukemia, 7.78 µM. Moreover, the TGI in the experiment on UACC-257 melanoma came out at 3.42 µM; in the experiment with SF-539 CNS, 3.39 µM.
In the case of `COc1ccc(-c2csc3c2-n2cccc2C3=O)cc1`, the concentration for 50% growth inhibition (GI50) in the experiment with CAKI-1 renal was 0.0528 µM; with SF-268 CNS it was 0.0434 µM; in the experiment on RPMI-8226 leukemia it was 0.0259 µM. The TGI was greater than 100 µM in the experiment on CAKI-1 renal; greater than 100 µM in the experiment on SF-268 CNS; greater than 100 µM in the experiment with NCI-H23 lung; greater than 100 µM in the experiment with SK-MEL-28 melanoma; 2.39 µM in the experiment with SF-539 CNS.
Consider `Cn1ncnc1[C@@H]1c2n[nH]c(=O)c3cc(F)cc(c23)N[C@H]1c1ccc(F)cc1`, for which the GI50 with CAKI-1 renal was 91.5 µM; with SF-268 CNS, greater than 100 µM; in the experiment on NCI-H23 lung it was greater than 100 µM; in the experiment with RXF 393 renal it was greater than 100 µM; in the experiment on SK-MEL-28 melanoma, greater than 100 µM; in the experiment on RPMI-8226 leukemia, greater than 100 µM. For the same compound, in the experiment with SF-539 CNS, the GI50 was greater than 100 µM. The concentration for total growth inhibition (TGI) in the experiment on CAKI-1 renal, with SF-268 CNS, in the experiment on NCI-H23 lung, with RXF 393 renal, in the experiment on SK-MEL-28 melanoma and in the experiment on RPMI-8226 leukemia was greater than 100 µM throughout. The TGI in the experiment on SF-539 CNS was greater than 100 µM.
For `Cn1cc(C2NC(=O)c3ccccc3N2)c2ccccc21` (configuration not stated), the total growth inhibition concentration (TGI) with CAKI-1 renal was greater than 100 µM; with SF-268 CNS, greater than 100 µM; with NCI-H23 lung, greater than 100 µM; in the experiment on RXF 393 renal, 0.704 µM; in the experiment with SK-MEL-28 melanoma it was greater than 100 µM; with UACC-257 melanoma, greater than 100 µM. This compound showed a TGI in the experiment on SF-539 CNS of 6.87 µM.
`C=CCC1(O)c2ccccc2C(=O)c2c(OCC(=O)OCC)ccc(OCC(=O)OCC)c21` (configuration not stated): the GI50 in the experiment with CAKI-1 renal is greater than 100 µM; with SF-268 CNS, greater than 100 µM; in the experiment on NCI-H23 lung it was greater than 100 µM; with SK-MEL-28 melanoma it was greater than 100 µM; with RPMI-8226 leukemia, 89 µM; in the experiment on UACC-257 melanoma, greater than 100 µM. In addition, in the experiment with SF-539 CNS, the GI50 is greater than 100 µM. The TGI with CAKI-1 renal, in the experiment on SF-268 CNS, with NCI-H23 lung, in the experiment on SK-MEL-28 melanoma, with RPMI-8226 leukemia and in the experiment with UACC-257 melanoma was greater than 100 µM each time. Moreover, the concentration for total growth inhibition (TGI) in the experiment with SF-539 CNS is greater than 100 µM.
Turning to `Nc1c(C(=O)Nc2cccc(Cl)c2)sc2nc3c(cc12)C(=O)CCC3`, the GI50 with CAKI-1 renal was 0.438 µM; in the experiment on SF-268 CNS, greater than 45.4 µM; with NCI-H23 lung, 0.751 µM; in the experiment on RXF 393 renal, 0.479 µM; with SK-MEL-28 melanoma, 0.567 µM; in the experiment with UACC-257 melanoma it was greater than 100 µM. Also, in the experiment with SF-539 CNS, the GI50 is 0.586 µM. Besides, the TGI was greater than 100 µM in the experiment with CAKI-1 renal; greater than 100 µM with SF-268 CNS; greater than 100 µM in the experiment on NCI-H23 lung; greater than 42.2 µM with RXF 393 renal; greater than 100 µM in the experiment with SK-MEL-28 melanoma; greater than 100 µM in the experiment on UACC-257 melanoma. Further, the TGI with SF-539 CNS is greater than 100 µM.
Consider `CCOC(=O)c1noc2c1CCc1c-2cn(Cc2ccc(OC)cc2)c1-c1cc(OC)c(OC)c(OC)c1`, for which the GI50 is 8.07 µM in the experiment with SF-268 CNS; 3.04 µM with NCI-H23 lung; 2.17 µM with RXF 393 renal; 1.9 µM with SK-MEL-28 melanoma; 2.85 µM in the experiment on RPMI-8226 leukemia; 85.8 µM in the experiment with UACC-257 melanoma. The GI50 in the experiment with SF-539 CNS is 1.84 µM. In addition, the TGI is greater than 100 µM with SF-268 CNS; greater than 100 µM with NCI-H23 lung; 45.6 µM in the experiment with RXF 393 renal; greater than 100 µM in the experiment on SK-MEL-28 melanoma; greater than 100 µM in the experiment with RPMI-8226 leukemia; greater than 100 µM in the experiment with UACC-257 melanoma. The TGI with SF-539 CNS is 6.56 µM.
Consider `CC(C)=CCC/C(C)=C/CC/C(C)=C/CSC[C@H](NC(=O)CCCCCN1CCN(C)CC1)C(=O)NC1CCCCCC1`, for which the GI50 is 2.84 µM in the experiment with CAKI-1 renal; 2.02 µM in the experiment on SF-268 CNS; 3.01 µM in the experiment with NCI-H23 lung; 1.7 µM in the experiment with SK-MEL-28 melanoma; 1.98 µM in the experiment with RPMI-8226 leukemia; 1.85 µM in the experiment with UACC-257 melanoma. In addition, the GI50 in the experiment on SF-539 CNS was 1.89 µM. Besides, the TGI in the experiment with CAKI-1 renal was 9.19 µM; with SF-268 CNS it was 4.03 µM; in the experiment on NCI-H23 lung, 8.78 µM; in the experiment on SK-MEL-28 melanoma, 3.32 µM; with RPMI-8226 leukemia, 4.67 µM; in the experiment on UACC-257 melanoma, 3.63 µM. This compound registered a total growth inhibition concentration (TGI) in the experiment on SF-539 CNS of 3.38 µM.
On to `O=C(O)/C=C\C(=O)Nc1ccc2c(c1)-c1ccccc1C2`, for which the total growth inhibition concentration (TGI) with CAKI-1 renal, in the experiment with SF-268 CNS, in the experiment on NCI-H23 lung, in the experiment with RXF 393 renal, in the experiment on SK-MEL-28 melanoma and in the experiment with RPMI-8226 leukemia was greater than 100 µM in each case. Further, the total growth inhibition concentration (TGI) in the experiment with UACC-257 melanoma is greater than 100 µM.
For `C=CC1(C)CCC2C(=CCC3C2(C)CC(O)C(O)C3(C)COC2OC(CO)C(O)C(O)C2O)C1` (configuration not stated), the total growth inhibition concentration (TGI) with CAKI-1 renal, in the experiment on SF-268 CNS, in the experiment on NCI-H23 lung, in the experiment with SK-MEL-28 melanoma, in the experiment with UACC-257 melanoma and with SF-539 CNS was greater than 100 µM in each case.
For `CC(=O)/C(=C\c1ccc(Cl)cc1)c1ccccc1`, the GI50 with CAKI-1 renal was 0.549 µM; with SF-268 CNS, 0.201 µM; with NCI-H23 lung it was 0.26 µM; with RXF 393 renal it was 0.0579 µM; with SK-MEL-28 melanoma, 2.05 µM; with RPMI-8226 leukemia it was 0.133 µM. The total growth inhibition concentration (TGI) in the experiment on CAKI-1 renal was greater than 100 µM; in the experiment with SF-268 CNS, greater than 100 µM; with NCI-H23 lung, greater than 100 µM; in the experiment with SK-MEL-28 melanoma, greater than 100 µM; in the experiment with RPMI-8226 leukemia, 25.9 µM.
As to `CCN1CCN(CCC(=O)Nc2cccc(-n3cc(-c4ccncc4)c(-c4ccc(Cl)c(OC)c4)n3)c2)CC1`, the GI50 is 0.663 µM in the experiment on SF-268 CNS; 1.04 µM with NCI-H23 lung; 0.244 µM in the experiment with RXF 393 renal; 1.39 µM with SK-MEL-28 melanoma; 0.864 µM in the experiment on UACC-257 melanoma; 0.362 µM in the experiment with SF-539 CNS. For the same compound, the TGI worked out at 2.43 µM in the experiment with SF-268 CNS; 3.56 µM in the experiment with NCI-H23 lung; 1.43 µM in the experiment on RXF 393 renal; 2.97 µM with SK-MEL-28 melanoma; 2.31 µM in the experiment with UACC-257 melanoma; 1.47 µM in the experiment with SF-539 CNS.
